According to patent US11415579B2, “Assay for measuring a rate of reaction between a target and a ligand candidate” (Imperial College Innovations Ltd., priority 2016, dated 2022):

Experiments:
[1] = Kinetic thiol consumption assay with model thiol glutathione; assay type: physicochemical; set-up: Rate constant with glutathione (k(GSH)): unit not given here; settings: for Rate constant with glutathione (k(GSH)): 500 μM ligand, 5 μM thiol, phosphate buffer pH 8; for Rate constant with Glutathione: Protein: Glutathione, cysteine position NA, in h-1
Method in brief: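 Rate constants for acrylamide reaction with 5 μM glutathione come from first-order exponential fits of normalized fluorescence decay (ex 380, em 470 nm). Reactions run in degassed phosphate buffer at pH 8 containing TCEP beads, room temperature.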

[2] = target: T1, human cyclin-dependent kinase 2 (Cdk2) (Homo sapiens, UniProt P24941); experiment: Kinetic thiol consumption assay with wild type Cdk2 (C177); assay type: binding; set-up: key to Rate enhancement, Cdk2 WT: k(Cdk2) divided by k(model thiol); Rate constant with Cdk2 (k(Cdk2)): unit not given here; settings: for Rate constant with Cdk2 (k(Cdk2)): 500 μM ligand, 5 μM thiol, phosphate buffer pH 8; for Rate enhancement, Cdk2 WT: no additional mutations; for Rate constant with Cdk2 WT: Protein: Cdk2, cysteine position WT, in h^-1; for k(Cdk2)/k(Cdk2_mut) rate enhancement: model thiol Cdk2[C177A, F80C, K278C]; for k(Cdk2)/k(GSH) rate enhancement: model thiol glutathione
T1 construct: poly-histidine; made in house; host or cells: E. coli
Method in brief: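 Thiol 5 μM (Cdk2 or model thiol), degassed phosphate buffer pH 8, TCEP beads 2% v/v. Plates incubated 1 h RT, ex/em 380/470 nm. First-order decay fit → rate constant; ratio Cdk2/model thiol = rate enhancement.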

Cdk2[C177A, F80C, K278C] = target: T2, Cdk2[C177A, F80C, K278C] (Homo sapiens, UniProt P24941, C177A/F80C/K278C); experiment: Kinetic thiol consumption assay with mutant Cdk2 as model thiol; assay type: binding; set-up: unit not given here; settings: 500 μM ligand, 5 μM thiol, phosphate buffer pH 8
T2 construct: poly-histidine; made in house; host or cells: E. coli
Method in brief: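 Model thiol: His-tagged human Cdk2 C177A/F80C/K278C (two engineered surface cysteines), E. coli-expressed, 5 μM in degassed phosphate buffer pH 8 with immobilized TCEP beads (2% v/v). Fluorescence (ex/em 380/470 nm) followed over time at room temperature, normalized to DMSO/thiol control. First-order decay fit gives rate constants.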

Cdk2(C177A, F80C) = target: T3, Cdk2(C177A, F80C) (Homo sapiens, UniProt P24941, C177A/F80C); experiment: Kinetic thiol consumption assay with Cdk2 mutant F80C, incl. kobs versus concentration (Kd, k2); assay type: binding; set-up: key to Rate enhancement, Cdk2 F80C: Cdk2 rate constant divided by model-thiol rate constant; settings: additional mutation C177A; for Rate constant with Cdk2 F80C: Protein: Cdk2, cysteine position F80C, in h^-1
T3 construct: poly-histidine; made in house; host or cells: E. coli
Method in brief: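 His-tagged Cdk2(C177A/F80C) from E. coli or model thiol, 5 μM in degassed phosphate buffer pH 8 with TCEP beads, reacted with acrylamide ligands; fluorescence (ex/em 380/470 nm) normalized to DMSO control and fitted to first-order decay for kobs. Kd and k2 obtained from hyperbolic fit of kobs versus ligand concentration.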

Cdk2(H71C) (C177A) = target: T4, Cdk2(H71C) (C177A) (Homo sapiens, UniProt P24941, C177A/H71C); experiment: Kinetic thiol consumption assay with Cdk2 mutant H71C; assay type: binding; set-up: key to Rate enhancement, Cdk2 H71C: rate constant with Cdk2 ÷ rate constant with model thiol (fold); settings: additional mutation C177A; for Rate constant with Cdk2 H71C: Protein: Cdk2, cysteine position H71C, in h^-1
T4 construct: poly-histidine; made in house; host or cells: E. coli
Method in brief: (§1)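 His-tagged single-surface-cysteine Cdk2 mutants (C177A background) from E. coli, 5 μM in degassed phosphate buffer pH 8, pre-treated with immobilized TCEP beads. Fluorescence (ex/em 380/470 nm) read after 1 h at room temperature, normalized to DMSO/thiol-only control; first-order decay fits gave rate constants, divided by model-thiol rate for rate enhancement.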

Cdk2(S276C) (C177A) = target: T5, Cdk2(S276C) (C177A) (Homo sapiens, UniProt P24941, C177A/S276C); experiment: Kinetic thiol consumption assay with Cdk2 mutant S276C; assay type: binding; set-up: key to Rate enhancement, Cdk2 S276C: rate constant with Cdk2 ÷ rate constant with model thiol (fold); settings: additional mutation C177A; for Rate constant with Cdk2 S276C: Protein: Cdk2, cysteine position S276C, in h^-1
T5 construct: poly-histidine; made in house; host or cells: E. coli
Method in brief: as §1

Cdk2(N272C) (C177A) = target: T6, Cdk2(N272C) (C177A) (Homo sapiens, UniProt P24941, C177A/N272C); experiment: Kinetic thiol consumption assay with Cdk2 mutant N272C; assay type: binding; set-up: key to Rate enhancement, Cdk2 N272: rate constant with Cdk2 ÷ rate constant with model thiol (fold); settings: for Rate enhancement, Cdk2 N272: Cdk2 N272, additional mutation C177A; for Rate constant with Cdk2 N272C: Protein: Cdk2, cysteine position N272C, additional mutation C177A, in h^-1
T6 construct: poly-histidine; made in house; host or cells: E. coli
Method in brief: as §1

Cdk2(T182C) (C177A) = target: T7, Cdk2(T182C) (C177A) (Homo sapiens, UniProt P24941, C177A/T182C); experiment: Kinetic thiol consumption assay with Cdk2 mutant T182C; assay type: binding; set-up: key to Rate enhancement, Cdk2 T182C: rate constant with Cdk2 ÷ rate constant with model thiol (fold); settings: additional mutation C177A; for Rate constant with Cdk2 T182C: Protein: Cdk2, cysteine position T182C, in h^-1
T7 construct: poly-histidine; made in house; host or cells: E. coli
Method in brief: as §1

Cdk2(R122C) (C177A) = target: T8, Cdk2(R122C) (C177A) (Homo sapiens, UniProt P24941, C177A/R122C); experiment: Kinetic thiol consumption assay with Cdk2 mutant R122C; assay type: binding; set-up: key to Rate enhancement, Cdk2 R122C: rate constant with Cdk2 ÷ rate constant with model thiol (fold); settings: additional mutation C177A; for Rate constant with Cdk2 R122C: Protein: Cdk2, cysteine position R122C, in h-1
T8 construct: poly-histidine; made in house; host or cells: E. coli
Method in brief: as §1

Cdk2(S181C) (C177A) = target: T9, Cdk2(S181C) (C177A) (Homo sapiens, UniProt P24941, C177A/S181C); experiment: Kinetic thiol consumption assay with Cdk2 mutant S181C; assay type: binding; set-up: key to Rate enhancement, Cdk2 S181C: rate constant with Cdk2 ÷ rate constant with model thiol (fold); settings: additional mutation C177A; for Rate constant with Cdk2 S181C: Protein: Cdk2, cysteine position S181C, in h^-1
T9 construct: poly-histidine; made in house; host or cells: E. coli
Method in brief: as §1

Row | Structure (SMILES) | Rate constant with glutathione (k(GSH)) [1] | Rate constant with Glutathione [1] | Rate constant with Cdk2 (k(Cdk2)) [2] | Rate enhancement, Cdk2 WT [2] | Rate constant with Cdk2 WT [2] | k(Cdk2)/k(Cdk2_mut) rate enhancement [2] | k(Cdk2)/k(GSH) rate enhancement [2] | Rate constant with Cdk2[C177A, F80C, K278C] (k(Cdk2_mut)) (Cdk2[C177A, F80C, K278C]) | Rate enhancement, Cdk2 F80C (Cdk2(C177A, F80C)) | Rate constant with Cdk2 F80C (Cdk2(C177A, F80C)) | Rate enhancement, Cdk2 H71C (Cdk2(H71C) (C177A)) | Rate constant with Cdk2 H71C (Cdk2(H71C) (C177A)) | Rate enhancement, Cdk2 S276C (Cdk2(S276C) (C177A)) | Rate constant with Cdk2 S276C (Cdk2(S276C) (C177A)) | Rate enhancement, Cdk2 N272 (Cdk2(N272C) (C177A)) | Rate constant with Cdk2 N272C (Cdk2(N272C) (C177A)) | Rate enhancement, Cdk2 T182C (Cdk2(T182C) (C177A)) | Rate constant with Cdk2 T182C (Cdk2(T182C) (C177A)) | Rate enhancement, Cdk2 R122C (Cdk2(R122C) (C177A)) | Rate constant with Cdk2 R122C (Cdk2(R122C) (C177A)) | further results
1 | C=CC(=O)N1CCN(c2ccccc2[N+](=O)[O-])CC1 [EL-1134] | 0.00444 | 0.004413 | 0.0071 | 1.609 | 0.007099 | 0.3385 | 1.597 | 0.02097 | 3.947 | 0.01742 | 4.627 | 0.02042 | 1.414 | 0.006242 | 1.119 | 0.004938 | 14.4 | 0.06354 | 1.145 | 0.005054 | Rate enhancement, Cdk2 S181C (Cdk2(S181C) (C177A)): 1.601; Rate constant with Cdk2 S181C (Cdk2(S181C) (C177A)): 0.007065
2 | C=CC(=O)Nc1ccc(C(=O)c2ccccc2)cc1 [CA-219] | 0.06515 | 0.06668 | 0.2317 | 3.475 | 0.2317 | 0.3223 | 3.556 | 0.7188 | 17.8 | 1.187 | 0.5597 | 0.03732 | 1.204 | 0.08025 | 0.8368 | 0.0558 | 9.837 | 0.6559 | 0.1738 | 0.01159 | Rate enhancement, Cdk2 S181C (Cdk2(S181C) (C177A)): 0.5975; Rate constant with Cdk2 S181C (Cdk2(S181C) (C177A)): 0.03984
